Data published in publication PMC8102414 (Heliyon, 2021).
Values after ≈ are worked out from the molar mass of the structure shown.

Key:
[1] = test system: advanced glycation end products (AGEs); test: Glycation inhibition assay; format: biochemical; conditions: Inactive at >100 μM; for IC50: read-out: Glycation inhibition (IC50)
3T3-L1 adipocyte cells = test: Glucose consumption assay; format: cell-based; conditions: induction of glucose consumption, 3T3-L1 adipocyte cells; Inactive at >100 μM
RAW 264.7 cells = test: Nitric oxide production inhibition assay; format: cell-based; conditions: for NO Inhibition (IC50, μM): LPS-stimulated NO production in RAW 264.7 cells, Inactive at >100 μM
[2] = test system: Salmonella typhi DMST 22842; test: microbe, parasite or virus in culture; format: cell-based; conditions: for MIC (μg/mL) ST: Gram-negative, Salmonella typhi (DMST 22842), Inactive at >128 μg/mL; for MIC: Salmonella enterica, TYPHI, read-out: MIC (μg/mL) ST
[3] = test system: Enterococcus faecalis ATCC 29212; test: Antimicrobial MIC, 2-fold serial dilution; conditions: for MIC (μg/mL) EF: Gram-positive, Enterococcus faecalis (ATCC 29212), Inactive at >128 μg/mL; for MIC: Enterococcus faecalis, ATCC29212, read-out: MIC (μg/mL) EF
[4] = test system: Micrococcus luteus DMST 15503; test: Antimicrobial MIC, 2-fold serial dilution; conditions: for MIC (μg/mL) MT: Gram-positive, Micrococcus luteus (DMST 15503), Inactive at >128 μg/mL; for MIC: Micrococcus luteus, DMST15503, read-out: MIC (μg/mL) MT
[5] = test system: methicillin resistant Staphylococcus aureus NPRC 001R; test: Antimicrobial MIC, 2-fold serial dilution; conditions: for MIC (μg/mL) MRSA: Gram-positive, Methicillin Resistant Staphylococcus aureus (NPRC 001R), Inactive at >128 μg/mL
[6] = test system: Staphylococcus aureus ATCC 25923; test: Antimicrobial MIC, 2-fold serial dilution; conditions: for MIC (μg/mL) SA: Gram-positive, Staphylococcus aureus (ATCC 25923), Inactive at >128 μg/mL; for MIC: Staphylococcus aureus, ATCC25923, read-out: MIC (μg/mL) SA
[7] = test system: Streptococcus pyogenes ATCC, 19615; test: Antimicrobial MIC, 2-fold serial dilution; conditions: for MIC (μg/mL) SP: Gram-positive, Streptococcus pyogenes (ATCC, 19615), Inactive at >128 μg/mL
[8] = test system: Shigella flexneri DMST 4423; test: Antimicrobial MIC, 2-fold serial dilution; conditions: for MIC (μg/mL) SF: Gram-negative, Shigella flexneri (DMST 4423), Inactive at >128 μg/mL; for MIC: Shigella flexneri, DMST4423, read-out: MIC (μg/mL) SF
[9] = test system: Pseudomonas aeruginosa ATCC 10145; test: Antimicrobial MIC, 2-fold serial dilution; conditions: for MIC: Pseudomonas aeruginosa, ATCC10145, read-out: MIC (μg/mL) PA
[10] = test system: Salmonella typhimurium DMST 562; test: Antimicrobial MIC, 2-fold serial dilution; conditions: for MIC (μg/mL) STR: Gram-negative, Salmonella typhimurium (DMST 562), Inactive at >128 μg/mL
[11] = test system: Escherichia coli TISTR 780; test: Antimicrobial MIC, 2-fold serial dilution; conditions: for MIC: Escherichia coli, TISTR780, read-out: MIC (μg/mL) EC; for MIC (μg/mL) EC: Gram-negative, Escherichia coli (TISTR 780), Inactive at >128 μg/mL
[12] = test system: Candida albicans ATCC 10231; test: Antimicrobial MIC, 2-fold serial dilution; conditions: for MIC (μg/mL) CA: Fungi, Candida albicans (ATCC 10231), Inactive at >128 μg/mL; for MIC: Candida albicans, ATCC10231, read-out: MIC (μg/mL) CA

Row | SMILES | Glycation inhibition (IC50, μM) [1] | Glucose consumption (IC50, μM) (3T3-L1 adipocyte cells) | NO Inhibition (IC50, μM) (RAW 264.7 cells) | MIC (μg/mL) ST [2] | MIC (μg/mL) EF [3] | MIC (μg/mL) MT [4] | MIC (μg/mL) MRSA [5] | MIC (μg/mL) SP [7] | MIC (μg/mL) SF [8] | MIC [9] | MIC [11] | MIC (μg/mL) CA [12] | MIC [2] | MIC [3] | MIC (μg/mL) STR [10] | MIC [12] | MIC (μg/mL) EC [11] | MIC [6] | also measured
1 | COc1ccc2c3c(oc2c1CC=C(C)C)-c1ccc(O)cc1OC3 [Compound 3, eryvarin D] | Inactive | Inactive | Inactive | Inactive | Inactive | Inactive | Inactive | Inactive | Inactive | 128 µg/mL (≈ 381 µM) | 128 µg/mL (≈ 381 µM) | Inactive |  |  |  |  |  |  | MIC (μg/mL) SA [6]: Inactive; MIC ([10]; Salmonella enterica, TYPHIMURIUM, read-out: MIC (μg/mL) STR): 128 µg/mL (≈ 381 µM)
2 | O=c1oc2cc(O)ccc2c2oc3cc(O)ccc3c12 [Compound 6, coumestrol] | Inactive | Inactive | Inactive |  |  | Inactive |  | Inactive |  | 128 µg/mL (≈ 477 µM) | 128 µg/mL (≈ 477 µM) |  | 128 µg/mL (≈ 477 µM) | 128 µg/mL (≈ 477 µM) | Inactive | 128 µg/mL (≈ 477 µM) |  |  | MIC (μg/mL) SA [6]: Inactive; MIC [8]: 128 µg/mL (≈ 477 µM)
3 | CC(C)=CCc1c(O)ccc2c1O[C@H]1c3ccc(O)cc3OC[C@@H]21 [Compound 11, phaseollidin] | Inactive | Inactive | Inactive |  |  |  |  |  | Inactive | 128 µg/mL (≈ 395 µM) |  |  | 128 µg/mL (≈ 395 µM) | 128 µg/mL (≈ 395 µM) | Inactive | 128 µg/mL (≈ 395 µM) | Inactive |  | MIC [4]: 128 µg/mL (≈ 395 µM)
4 | O=C1C[C@@H](c2ccccc2)Oc2cc(O)cc(O)c21 [Compound 15, pinocembrin] |  | Inactive | Inactive | Inactive | Inactive | Inactive | Inactive | Inactive |  | 128 µg/mL (≈ 499 µM) | 128 µg/mL (≈ 499 µM) | Inactive |  |  | Inactive |  |  | 128 µg/mL (≈ 499 µM) | IC50 [1]: 83.1 ± 0.94 µM; MIC [8]: 128 µg/mL (≈ 499 µM)
5 | O=c1c(O)c(-c2ccc(O)cc2)oc2ccc(O)cc12 [Compound 16, 3,6,4′-trihydroxyflavone] | Inactive | Inactive |  | Inactive | Inactive | Inactive | Inactive | Inactive | Inactive | 128 µg/mL (≈ 474 µM) | 128 µg/mL (≈ 474 µM) | Inactive |  |  | Inactive |  |  | 128 µg/mL (≈ 474 µM) | IC50 (RAW 264.7 cells; Mus musculus, RAW264.7, read-out: NO Inhibition (IC50, μM)): 96.2 ± 1.61 µM
6 | O=c1c(O)c(-c2ccccc2)oc2ccc(O)cc12 [Compound 17, 3,6-dihydroxyflavone] | Inactive | Inactive | Inactive | Inactive | Inactive | Inactive | Inactive | Inactive | Inactive | 128 µg/mL (≈ 503 µM) |  | Inactive |  |  | Inactive |  | Inactive | 128 µg/mL (≈ 503 µM) | 
7 | COc1cc(O)cc2oc(-c3ccccc3)cc(=O)c12 [Compound 18, 5-methoxy-7-hydroxyflavone] | Inactive | Inactive | Inactive |  | Inactive | Inactive | Inactive | Inactive | Inactive | 128 µg/mL (≈ 477 µM) | 128 µg/mL (≈ 477 µM) | Inactive | 128 µg/mL (≈ 477 µM) |  | Inactive |  |  | 128 µg/mL (≈ 477 µM) | 
8 | CC(C)=CCc1cc(-c2coc3c(CC=C(C)C)c(O)ccc3c2=O)ccc1O [Compound 20, erysubin F] | Inactive | Inactive | Inactive | Inactive |  | Inactive | Inactive | Inactive | Inactive |  |  |  |  | 128 µg/mL (≈ 328 µM) | Inactive |  | Inactive |  | MIC (μg/mL) PA ([9]; Gram-negative, Pseudomonas aeruginosa (ATCC 10145), Inactive at >128 μg/mL): Inactive
9 | O=c1c(O)c(-c2ccc(O)c(O)c2)oc2cc(O)cc(O)c12 [Quercetin, quercetin, reference compound] |  |  |  |  |  |  |  |  |  |  |  |  |  |  |  |  |  |  | IC50 [1]: 59.1 ± 0.78 µM
10 | CN[C@H](CC(C)C)C(=O)N[C@H]1C(=O)N[C@@H](CC(N)=O)C(=O)N[C@H]2C(=O)N[C@H]3C(=O)N[C@H](C(=O)N[C@H](C(=O)O)c4cc(O)cc(O)c4-c4cc3ccc4O)[C@H](O)c3ccc(c(Cl)c3)Oc3cc2cc(c3O[C@@H]2O[C@H](CO)[C@@H](O)[C@H](O)[C@H]2O[C@H]2C[C@](C)(N)[C@H](O)[C@H](C)O2)Oc2ccc(cc2Cl)[C@H]1O [Vancomycin, vancomycin, reference compound] |  |  |  |  |  |  |  |  |  |  |  |  |  | 2 µg/mL (≈ 1.38 µM) |  | 4 µg/mL (≈ 2.76 µM) |  | 0.5 µg/mL (≈ 0.345 µM) | MIC [4]: 2 µg/mL (≈ 1.38 µM); MIC ([5]; Staphylococcus aureus, MRSA, read-out: MIC (μg/mL) MRSA): 1 µg/mL (≈ 0.69 µM); MIC ([7]; Streptococcus pyogenes, read-out: MIC (μg/mL) SP): 2 µg/mL (≈ 1.38 µM)
